In ChEMBL document CHEMBL1201862, “PubChem BioAssay data set” (2004):
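Dose response: 5 concentrations. Exposure: 48 h. Format: 96-well plates. Endpoint: linear interpolation; highest concentration if not reached. GI50 = concentration required for 50% inhibition of growth.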 Calls of active or inactive are those of the source. Rule as the data show it: active = GI50 up to about 1.1 µM and inactive = higher.

What was measured:
Assay in all cases: DTP human tumour cell line panel, 48 h
786-0 = test system: 786-0
A498 = test system: A498
A549 = test system: A549
ACHN = test system: ACHN
CAKI-1 = test system: CAKI-1
CCRF-CEM = test system: CCRF-CEM
COLO 205 = test system: COLO 205
DLD-1 = test system: DLD-1
DMS-114 = test system: DMS-114
DMS-273 = test system: DMS-273
EKVX = test system: EKVX
HCC 2998 = test system: HCC 2998
HCT-116 = test system: HCT-116
HCT-15 = test system: HCT-15
HL-60 = test system: HL-60
HOP-18 = test system: HOP-18
HOP-62 = test system: HOP-62
HOP-92 = test system: HOP-92
HT-29 = test system: HT-29
IGROV-1 = test system: IGROV-1
K562 = test system: K562
KM-20L2 = test system: KM-20L2
KM12 = test system: KM12
LOX IMVI = test system: LOX IMVI
M14 = test system: M14
M19-MEL = test system: M19-MEL
MOLT-4 = test system: MOLT-4
Malme-3M = test system: Malme-3M
NCI-H226 = test system: NCI-H226
NCI-H23 = test system: NCI-H23
NCI-H460 = test system: NCI-H460
NCI-H522 = test system: NCI-H522
OVCAR-3 = test system: OVCAR-3
OVCAR-4 = test system: OVCAR-4
OVCAR-5 = test system: OVCAR-5
OVCAR-8 = test system: OVCAR-8
RPMI-8226 = test system: RPMI-8226
RXF 393 = test system: RXF 393
SF-268 = test system: SF-268
SF-295 = test system: SF-295
SF-539 = test system: SF-539
SK-MEL-28 = test system: SK-MEL-28
SK-MEL-2 = test system: SK-MEL-2
SK-MEL-5 = test system: SK-MEL-5
SK-OV-3 = test system: SK-OV-3
SN12C = test system: SN12C
SNB-19 = test system: SNB-19
SNB-75 = test system: SNB-75
SNB-78 = test system: SNB-78
SR = test system: SR
SW-620 = test system: SW-620
TK-10 = test system: TK-10
U-251 = test system: U-251
UACC-257 = test system: UACC-257
UACC-62 = test system: UACC-62
UO-31 = test system: UO-31
XF498 = test system: XF498
LXFL 529 = test system: LXFL 529

N#Cc1cccc2c1Nc1ccccc1S2
GI50 (786-0): 55.1 µM (inactive)
GI50 (A498): > 100 µM (inactive)
GI50 (A549): > 100 µM (inactive)
GI50 (ACHN): > 100 µM (inactive)
GI50 (CAKI-1): > 100 µM (inactive)
GI50 (CCRF-CEM): > 100 µM (inactive)
GI50 (COLO 205): > 100 µM (inactive)
GI50 (DLD-1): > 100 µM (inactive)
GI50 (DMS-114): 81.1 µM (inactive)
GI50 (DMS-273): > 100 µM (inactive)
GI50 (EKVX): > 100 µM (inactive)
GI50 (HCC 2998): > 100 µM (inactive)
GI50 (HCT-116): > 100 µM (inactive)
GI50 (HCT-15): > 100 µM
GI50 (HL-60): > 100 µM (inactive)
GI50 (HOP-18): 37.3 µM (inactive)
GI50 (HOP-62): 43.4 µM (inactive)
GI50 (HOP-92): 20.2 µM (inactive)
GI50 (HT-29): > 100 µM (inactive)
GI50 (IGROV-1): 48.9 µM (inactive)
GI50 (K562): > 100 µM (inactive)
GI50 (KM-20L2): > 100 µM (inactive)
GI50 (KM12): > 100 µM (inactive)
GI50 (LOX IMVI): > 100 µM (inactive)
GI50 (M14): > 100 µM (inactive)
GI50 (M19-MEL): > 100 µM (inactive)
GI50 (MOLT-4): > 100 µM (inactive)
GI50 (Malme-3M): > 100 µM (inactive)
GI50 (NCI-H226): 19.1 µM (inactive)
GI50 (NCI-H23): > 100 µM (inactive)
GI50 (NCI-H460): > 100 µM (inactive)
GI50 (NCI-H522): > 100 µM (inactive)
GI50 (OVCAR-3): > 100 µM (inactive)
GI50 (OVCAR-4): > 100 µM (inactive)
GI50 (OVCAR-5): > 100 µM (inactive)
GI50 (OVCAR-8): 79.3 µM (inactive)
GI50 (RPMI-8226): > 100 µM (inactive)
GI50 (RXF 393): 32.2 µM (inactive)
GI50 (SF-268): 32.9 µM (inactive)
GI50 (SF-295): 35.2 µM (inactive)
GI50 (SF-539): 46.7 µM (inactive)
GI50 (SK-MEL-28): > 100 µM (inactive)
GI50 (SK-MEL-2): 87.1 µM (inactive)
GI50 (SK-MEL-5): > 100 µM (inactive)
GI50 (SK-OV-3): > 100 µM (inactive)
GI50 (SN12C): > 100 µM (inactive)
GI50 (SNB-19): 37.8 µM (inactive)
GI50 (SNB-75): 19.7 µM (inactive)
GI50 (SNB-78): 67.9 µM (inactive)
GI50 (SR): > 100 µM (inactive)
GI50 (SW-620): > 100 µM (inactive)
GI50 (TK-10): > 100 µM (inactive)
GI50 (U-251): 92.7 µM (inactive)
GI50 (UACC-257): > 100 µM (inactive)
GI50 (UACC-62): 60.7 µM (inactive)
GI50 (UO-31): > 100 µM (inactive)
GI50 (XF498): 41.8 µM (inactive)

COc1cc(Nc2nc3cc(C)ccc3nc2-c2ccccc2)cc(OC)c1OC
GI50 (786-0): 14.7 µM (inactive)
GI50 (A498): 45.6 µM (inactive)
GI50 (A549): 29.8 µM (inactive)
GI50 (ACHN): 26.7 µM (inactive)
GI50 (CAKI-1): 27.5 µM (inactive)
GI50 (CCRF-CEM): 29.8 µM (inactive)
GI50 (COLO 205): 20.2 µM (inactive)
GI50 (DMS-114): 6.9 µM (inactive)
GI50 (DMS-273): 11.8 µM (inactive)
GI50 (EKVX): 20.7 µM (inactive)
GI50 (HCC 2998): 12.3 µM (inactive)
GI50 (HCT-116): 19.9 µM (inactive)
GI50 (HCT-15): 15.5 µM
GI50 (HL-60): 22.5 µM (inactive)
GI50 (HOP-18): 24.3 µM (inactive)
GI50 (HOP-92): 23.2 µM (inactive)
GI50 (HT-29): 14.8 µM (inactive)
GI50 (IGROV-1): 63.8 µM (inactive)
GI50 (K562): 23.4 µM (inactive)
GI50 (KM-20L2): 30.5 µM (inactive)
GI50 (KM12): 34.4 µM (inactive)
GI50 (LOX IMVI): 27.2 µM (inactive)
GI50 (LXFL 529): 39.7 µM (inactive)
GI50 (M14): 29.3 µM (inactive)
GI50 (M19-MEL): 24.2 µM (inactive)
GI50 (MOLT-4): 18.3 µM (inactive)
GI50 (Malme-3M): 29.6 µM (inactive)
GI50 (NCI-H23): 22.8 µM (inactive)
GI50 (NCI-H460): 15.8 µM (inactive)
GI50 (NCI-H522): 25.6 µM (inactive)
GI50 (OVCAR-3): 18.5 µM (inactive)
GI50 (OVCAR-4): 33 µM (inactive)
GI50 (OVCAR-5): > 100 µM (inactive)
GI50 (OVCAR-8): 36.5 µM (inactive)
GI50 (SF-268): 11.2 µM (inactive)
GI50 (SF-295): 20.9 µM (inactive)
GI50 (SK-MEL-28): 16.6 µM (inactive)
GI50 (SK-MEL-2): 23 µM (inactive)
GI50 (SK-MEL-5): 19.2 µM (inactive)
GI50 (SK-OV-3): > 100 µM (inactive)
GI50 (SN12C): 28.7 µM (inactive)
GI50 (SNB-19): 57.4 µM (inactive)
GI50 (SNB-75): 22.7 µM (inactive)
GI50 (SR): 16.2 µM (inactive)
GI50 (SW-620): 58.1 µM (inactive)
GI50 (TK-10): 42 µM (inactive)
GI50 (U-251): 35 µM (inactive)
GI50 (UACC-257): 47.5 µM (inactive)
GI50 (UACC-62): 21.5 µM (inactive)
GI50 (UO-31): 17.2 µM (inactive)
GI50 (XF498): 19.7 µM (inactive)

O=C(O)c1ccccc1C(=O)c1ccco1
GI50 (786-0): > 100 µM (inactive)
GI50 (A498): > 100 µM (inactive)
GI50 (A549): > 100 µM (inactive)
GI50 (ACHN): > 100 µM (inactive)
GI50 (CAKI-1): > 100 µM (inactive)
GI50 (CCRF-CEM): > 100 µM (inactive)
GI50 (COLO 205): > 100 µM (inactive)
GI50 (DLD-1): > 100 µM (inactive)
GI50 (DMS-114): > 100 µM (inactive)
GI50 (DMS-273): > 100 µM (inactive)
GI50 (EKVX): > 100 µM (inactive)
GI50 (HCC 2998): > 100 µM (inactive)
GI50 (HCT-116): > 100 µM (inactive)
GI50 (HCT-15): > 100 µM
GI50 (HL-60): > 100 µM (inactive)
GI50 (HOP-18): > 100 µM (inactive)
GI50 (HOP-62): > 100 µM (inactive)
GI50 (HOP-92): > 100 µM (inactive)
GI50 (HT-29): > 100 µM (inactive)
GI50 (IGROV-1): > 100 µM (inactive)
GI50 (K562): > 100 µM (inactive)
GI50 (KM-20L2): > 100 µM (inactive)
GI50 (KM12): > 100 µM (inactive)
GI50 (LOX IMVI): > 100 µM (inactive)
GI50 (M14): > 100 µM (inactive)
GI50 (M19-MEL): > 100 µM (inactive)
GI50 (MOLT-4): > 100 µM (inactive)
GI50 (Malme-3M): > 100 µM (inactive)
GI50 (NCI-H226): > 100 µM (inactive)
GI50 (NCI-H23): > 100 µM (inactive)
GI50 (NCI-H460): > 100 µM (inactive)
GI50 (NCI-H522): > 100 µM (inactive)
GI50 (OVCAR-3): > 100 µM (inactive)
GI50 (OVCAR-4): > 100 µM (inactive)
GI50 (OVCAR-5): > 100 µM (inactive)
GI50 (OVCAR-8): > 100 µM (inactive)
GI50 (RXF 393): > 100 µM (inactive)
GI50 (SF-268): > 100 µM (inactive)
GI50 (SF-295): > 100 µM (inactive)
GI50 (SF-539): > 100 µM (inactive)
GI50 (SK-MEL-28): > 100 µM (inactive)
GI50 (SK-MEL-2): > 100 µM (inactive)
GI50 (SK-MEL-5): > 100 µM (inactive)
GI50 (SN12C): > 100 µM (inactive)
GI50 (SNB-19): > 100 µM (inactive)
GI50 (SNB-75): > 100 µM (inactive)
GI50 (SNB-78): > 100 µM (inactive)
GI50 (SR): > 100 µM (inactive)
GI50 (SW-620): > 100 µM (inactive)
GI50 (TK-10): > 100 µM (inactive)
GI50 (U-251): > 100 µM (inactive)
GI50 (UACC-257): > 100 µM (inactive)
GI50 (UACC-62): > 100 µM (inactive)
GI50 (UO-31): > 100 µM (inactive)
GI50 (XF498): > 100 µM (inactive)
